According to the NIST ThermoML archive (doi:10.1016/j.jct.2007.05.004):

Experiment: xn = mol fraction of the nth substance listed
Conditions: 101 kPa, Liquid

CO [methanol] + COC(C)=O
x1 = 1
Conditions | mass density [kg/m3] | viscosity [mPa·s]
293.15 K | 791.9 | 0.585
298.15 K | 787.2 | 0.545
303.15 K | 782.48 | 0.508

O [water] + CO
x1 = 1
Conditions | viscosity [mPa·s]
293.15 K | 1.003
298.15 K | 0.89
303.15 K | 0.797

CCOC(C)=O [ethyl acetate] + CO
Conditions | mass density, 293.15 K [kg/m3] | mass density, 298.15 K [kg/m3] | mass density, 303.15 K [kg/m3] | viscosity, 293.15 K [mPa·s] | viscosity, 298.15 K [mPa·s] | viscosity, 303.15 K [mPa·s]
x2 = 0 | 900.52 | 894.43 | 888.3 | 0.452 | 0.426 | 0.403
x2 = 0.0474 | 898.51 | 892.43 | 886.3 | 0.447 | 0.422 | 0.4
x2 = 0.097 | 896.18 | 890.12 | 884.01 | 0.443 | 0.418 | 0.396
x2 = 0.1956 | 891.18 | 885.16 | 879.09 | 0.442 | 0.417 | 0.396
x2 = 0.2999 | 884.93 | 878.99 | 872.98 | 0.442 | 0.419 | 0.398
x2 = 0.3963 | 878.26 | 872.38 | 866.46 | 0.447 | 0.421 | 0.398
x2 = 0.4962 | 870.14 | 864.36 | 858.55 | 0.453 | 0.427 | 0.403
x2 = 0.5963 | 860.45 | 854.82 | 849.15 | 0.463 | 0.435 | 0.41
x2 = 0.6998 | 848.26 | 842.81 | 837.3 | 0.481 | 0.451 | 0.425
x2 = 0.7992 | 833.88 | 828.62 | 823.31 | 0.504 | 0.472 | 0.443
x2 = 0.9005 | 815.52 | 810.5 | 805.45 | 0.536 | 0.501 | 0.469

CCO [ethanol] + CCOC(C)=O
x1 = 1
Conditions | mass density [kg/m3] | viscosity [mPa·s]
293.15 K | 789.75 | 1.187
298.15 K | 785.46 | 1.082
303.15 K | 781.15 | 0.987

CO [methanol] + O
Conditions | mass density, 293.15 K [kg/m3] | mass density, 298.15 K [kg/m3] | mass density, 303.15 K [kg/m3] | viscosity, 293.15 K [mPa·s] | viscosity, 298.15 K [mPa·s] | viscosity, 303.15 K [mPa·s]
x2 = 0 | 791.9 | 787.2 | 782.48 | 0.585 | 0.545 | 0.508
x2 = 0.049 | 800.06 | 795.47 | 790.84 | 0.655 | 0.607 | 0.563
x2 = 0.0993 | 808.62 | 804.11 | 799.56 | 0.735 | 0.677 | 0.627
x2 = 0.1973 | 826.11 | 821.73 | 817.31 | 0.9 | 0.821 | 0.751
x2 = 0.2983 | 845.03 | 840.79 | 836.5 | 1.086 | 0.987 | 0.889
x2 = 0.3985 | 864.67 | 860.59 | 856.45 | 1.287 | 1.15 | 1.032
x2 = 0.5003 | 885.57 | 881.69 | 877.32 | 1.481 | 1.309 | 1.164
x2 = 0.5994 | 906.58 | 902.96 | 899.26 | 1.673 | 1.463 | 1.289
x2 = 0.6997 | 928.45 | 925.21 | 921.89 | 1.793 | 1.554 | 1.342
x2 = 0.7986 | 949.8 | 947.17 | 944.42 | 1.789 | 1.542 | 1.342
x2 = 0.8999 | 971.59 | 969.84 | 967.9 | 1.522 | 1.317 | 1.147
x2 = 0.9512 | 983.86 | 982.53 | 980.97 | 1.274 | 1.121 | 0.996

CCOC(C)=O [ethyl acetate] + CCO
Conditions | mass density, 293.15 K [kg/m3] | mass density, 298.15 K [kg/m3] | mass density, 303.15 K [kg/m3] | viscosity, 293.15 K [mPa·s] | viscosity, 298.15 K [mPa·s] | viscosity, 303.15 K [mPa·s]
x2 = 0 | 900.52 | 894.43 | 888.3 | 0.452 | 0.426 | 0.403
x2 = 0.0491 | 896.91 | 890.86 | 884.76 | 0.45 | 0.425 | 0.402
x2 = 0.099 | 893.14 | 887.11 | 881.03 | 0.452 | 0.429 | 0.406
x2 = 0.1958 | 885.48 | 879.55 | 873.57 | 0.463 | 0.435 | 0.412
x2 = 0.2961 | 877.07 | 871.22 | 865.34 | 0.476 | 0.448 | 0.426
x2 = 0.3947 | 868.09 | 862.38 | 856.63 | 0.497 | 0.467 | 0.439
x2 = 0.4948 | 858.16 | 852.62 | 847.03 | 0.542 | 0.502 | 0.467
x2 = 0.5995 | 846.81 | 841.47 | 836.07 | 0.581 | 0.543 | 0.508
x2 = 0.7004 | 834.71 | 829.57 | 824.39 | 0.66 | 0.614 | 0.575
x2 = 0.8004 | 821.45 | 816.55 | 811.61 | 0.758 | 0.701 | 0.65
x2 = 0.9003 | 806.45 | 801.82 | 797.15 | 0.919 | 0.843 | 0.777
x2 = 0.9505 | 798.36 | 793.91 | 789.42 | 1.048 | 0.958 | 0.869
